Test results taken from patent US6538033B2, “Nitric oxide donor compounds” (Huntington Medical Research Institutes, priority 2000, dated 2003).

Columns and labels:
platelet aggregation = assay: Platelet aggregation in vitro, thrombin as agonist (nephelometric aggregometer); assay type: cell-based, New Zealand rabbits; conditions: rabbit washed platelets; B-NOD 10, 100 or 1000 μM, 10 min preincubation; thrombin 0.04 to 0.14 U/ml
Procedure: Healthy male New Zealand rabbits were anesthetized with pentobarbital (10 mg/kg iv), ketamine (40 mg/kg im), xylazine (10 mg/kg im) and atropine (0.5 mg im). They were […] and mechanically ventilated with 95% oxygen (rate 40 strokes/min, tidal volume 25 ml). The heart was exposed with a median sternotomy, blood (40 ml) was collected from the right ventricle and washed platelets were prepared as described above. Platelet aggregation was monitored by a standard nephelometric technique in which 0.5 ml of platelet suspension (2×10^8 platelets/ml) were incubated at 37° C. and stirred at 1000 rpm in an aggregometer (Model PAP-3, Bio/Data corporation, Horsham, Pa.). The antiaggregant effects of B-NOD (10, 100 or 1000 μM) were tested by incubating platelets with B-NOD at 37.8° C. before the addition of thrombin. Incubation was carried out for 10 min. Thrombin was used as an agonist at relatively low concentrations (0.04 to 0.14 U/ml) to obtain submaximal aggregation in order to evaluate the drug's inhibitory effect.

[1] = Nitric oxide generation in vivo, plasma NOx after oral administration; design: species or system New Zealand White male rabbits; conditions: 80 mg/kg orally, rabbits
Procedure: (§1) New Zealand White male rabbits were given 80 mg/kg of B-NOD. B-NOD was dissolved in 2 ml DMSO, suspended in 8 ml carboxymethylcellulose (0.5%) and administered orally. Blood (1 ml) was drawn from the ear vein using heparinized syringes before and 10 minutes, 30 minutes, 1 hour, 3 hours, 5 hours, 7 hours, and 24 hours following B-NOD administration. Blood samples were centrifuged at 1200 g for 10 minutes and deproteinized by an ultrafiltration device (MPS Micropartition, Millipore Corporation, Bedford, Mass.) and centrifuged again at 2500 g for 90 minutes. Plasma NOx was measured by chemiluminescence as described above.
(§2) Heart rate and systolic and diastolic blood pressures were measured through a 22 gauge by one inch catheter inserted into the ear artery connected to a DIGI-MED™Heart Performance Analyzer 100 (Louisville, Ky.). Determination of blood pressure and heart rate were carried out prior to and 1, 3, 5 hours after B-NOD administration. FIG. 4 illustrates concentrations of NOx in plasma of animals up to 24 hours following administration of B-NOD.

[2] = system: cGMP production in platelets; assay: Platelet cGMP in vitro (acetylation enzyme immunoassay); assay type: cell-based; conditions: human washed platelets; B-NOD 10, 100 or 1000 μM, 10 minutes
Procedure: Washed platelets were prepared from human blood as described above. 400 μl aliquots were incubated in the presence of B-NOD (10, 100 or 1000 μM) or methanol for 10 minutes. Incubations were terminated by centrifugation at 1000 g and the supernatant was removed. Ice-cold phosphate buffer was added to the pellets, and the pellets were sonicated for 20 seconds. cGMP was measured using an acetylation enzyme immunoassay system (Biotrak, Piscataway, N.J.).

washed platelets = assay: Nitric oxide generation in vitro in the presence of washed platelets (chemiluminescence); assay type: cell-based, human; conditions: B-NOD 10, 100 or 1000 μM
Procedure: (§3) Venous blood was collected from healthy volunteers who had not previously been taking any drugs for at least two weeks; EDTA was used as an anticoagulant. Washed platelets were prepared as described in Radomski, M. and Moncada, S. (1983) An improved method for washing of human platelets with prostacyclin. Thromb Res 83,383-389, the disclosure of which is incorporated herein by reference, with some modifications. In brief, blood was centrifuged for 10 minutes at 200 g, and the resultant platelet rich plasma was removed. It was recentrifuged at 500 g for 10 minutes. The supernatant was discarded and the pellet was resuspended in Tyrode's solution. Platelet concentration was adjusted to 2×10^8 platelets/ml using a Coulter Counter (Model ZBI, Beckman-Coulter, Fullerton, Calif.). […]
(§4) The supernatant was analyzed for nitric oxide generation by chemiluminescence. […] Chemiluminescence was measured using a reducing system consisting of a ferrocene derivative dissolved in acetonitrile containing 1% perchloric acid, as described in Termin, A., Hoffmann, M. and Bing, R. J. (1992) A simplified method for the determination of nitric oxide in biological solutions. […] Under this condition, NO2 in the injected samples was reduced to NO and detected by chemiluminescence with the NO-analyzer (270 B, Sievers Res. Inc., Boulder, Colo.). […]

[3] = Nitric oxide generation in vitro, spontaneous release in the absence of washed platelets (chemiluminescence); conditions: without platelets, B-NOD 10, 100 or 1000 μM
Procedure: as §3, §4

[4] = Blood pressure and heart rate after oral administration; assay type: in vivo, New Zealand White male rabbits; conditions: 80 mg/kg orally, rabbits; one, three and five hours following administration
Procedure: as §1, §2
Several NO donors are known to cause a fall in blood pressure, particularly when administered intravenously.

Question: For O=C(Oc1cccc(CO[N+](=O)[O-])c1)c1ccccc1O [B-NOD, 3-(nitrooxymethyl)phenyl 2-hydroxybenzoate], which “inhibition of platelet aggregation as compared to the control” value (platelet aggregation) is on record?
Answer: approximately 25%

Question: And the “NOx concentration in plasma after 24 hours” value ([1]; 24 hours)?
Answer: returned to control values

Question: And the “NOx concentration in plasma, course to seven hours” value ([1]; seven hours following administration)?
Answer: plateaued for seven hours

Question: What about the “NOx concentration in plasma” value ([1]; three hours following administration (increase from 59 before administration)) of the same molecule?
Answer: 115 µmol/L

Question: What about the “cyclic GMP production in platelets” value [2] of the same molecule?
Answer: increased cyclic GMP production in a dose-dependent manner

Question: What about the “maximal NO release” value (washed platelets; in the presence of platelets (2×10^8 platelets/ml), 10 minutes) of the same molecule?
Answer: 156 µmol/L

Question: And the “NO production (NOx)” value (washed platelets; with platelets)?
Answer: increased NO production in a dose-dependent manner

Question: And the “NO production (NOx)” value [3]?
Answer: increased NO production in a dose-dependent manner

Question: And the “maximal NO release” value ([3]; 37° C., 10 minutes)?
Answer: 98 µmol/L

Question: And the diastolic pressure [4]?
Answer: did not affect

Question: What about the heart rate [4] of the same molecule?
Answer: failed to change

Question: And the systolic pressure [4]?
Answer: did not affect
